Two compounds from ChEMBL document CHEMBL1159360, “Bioactive asterosaponins from the starfish Luidia quinaria and Psilaster cassiope. Isolation and structure characterization by two-dimensional NMR spectroscopy” (J Nat Prod, 2003) can be followed below.

Calls of active or inactive are those of the source. The rule behind the calls is not given here.

Assay [1] deals with RBL-2H3. The experiment in a line: Cytotoxicity against rat RBL2H3 after 24 hrs by MTT assay. Format: functional, cell-based. The note with it: RBL-2H3, 24 h.
In assay [2] the test system is C6. The experiment in a line: Cytotoxicity against rat C6 after 24 hrs by MTT assay. The assay is classed as functional, cell-based. For orientation: Tetrazolium assays rely on reduction of a dye to a coloured formazan, in cell work by metabolically active cells.

On to `CC(C)CC(=O)C[C@](C)(O)[C@H]1CC[C@H]2[C@@H]3C[C@H](O[C@@H]4O[C@H](C)[C@@H](O)[C@H](O[C@@H]5O[C@H](CO)[C@@H](O[C@@H]6O[C@H](C)[C@@H](O)[C@H](O)[C@H]6O[C@@H]6O[C@H](C)[C@H](O)[C@H](O)[C@H]6O)[C@H](O)[C@H]5O[C@@H]5O[C@H](C)[C@@H](O)[C@H](O)[C@H]5O)[C@H]4O)[C@H]4C[C@@H](OS(=O)(=O)[O-])CC[C@]4(C)C3=CC[C@@]21C.[Na+]` [LUIDIAQUINOSIDE], for which, in assay [1], half-maximal inhibition (IC50) required 31.3 µg/mL. In addition, the outcome in assay [2] was inactive.

Regarding `CC(C)CC(=O)C[C@](C)(O)[C@H]1CC[C@H]2[C@@H]3C[C@H](O[C@@H]4O[C@H](C)[C@@H](O)[C@H](O[C@@H]5OC[C@@H](O[C@@H]6O[C@H](CO)[C@H](O)[C@H](O)[C@H]6O[C@@H]6O[C@H](C)[C@H](O)[C@H](O[C@@H]7O[C@@H](CO)[C@H](O)[C@H]7O)[C@H]6O)[C@H](O)[C@H]5O[C@@H]5O[C@H](C)[C@@H](O)[C@H](O)[C@H]5O)[C@H]4O)[C@H]4C[C@@H](OS(=O)(=O)[O-])CC[C@]4(C)C3=CC[C@@]21C.[Na+]` [PSILASTEROSIDE], the IC50 (in general, the concentration that gives 50% inhibition) in assay [1] was found to be 5.4 µg/mL. Further, the result in assay [2] was inactive.
